# Laboratory results published in publication PMC6187366, “Highly Sensitive Label-Free Detection of Small Molecules with an Optofluidic Microbubble Resonator” (Micromachines, 2018).
# Target: Streptavidin (SA) (Streptomyces avidinii, UniProt P22629)
# Assay: label-free optofluidic microbubble resonator, kinetic kon/koff global Langmuir fit
# Assay type: binding
# Conditions: read-out: ka (M)^-1 (converted)
# From the text: label-free optofluidic microbubble resonator, kinetic kon/koff global Langmuir fit on Streptavidin (SA)
# Chain of Streptavidin (SA) (P22629 25-183): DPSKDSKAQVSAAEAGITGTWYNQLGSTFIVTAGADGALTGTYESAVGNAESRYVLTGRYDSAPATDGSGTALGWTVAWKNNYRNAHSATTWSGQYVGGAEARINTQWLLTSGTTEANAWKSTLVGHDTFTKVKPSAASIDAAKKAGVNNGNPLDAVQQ
compound,measurement,value
C=CCc1ccc(O)c(-c2cc(CC=C)ccc2O)c1 [magnolol],Kd,2.13e-11 M
